One block for each molecule: values may come before it.
System: 377384-186-R-J1-PDC complex spheroid viability
Experiment: Anticancer human tumor 377384-186-R-J1-PDC patient-derived pancreatic carcinoma cell line growth inhibition [RAS]
Details: for IC50: curve of first compound; for viability, T/C: stronger effect = lower value
Summary of the method: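 Agents were tested in combination matrices in half-log decrements from a top concentration at or near clinical Cmax (10 microM if undetermined). Targets were multi-cell spheroids of tumour lines plus HUVEC and MSC stromal cells.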

[1] = second compound 0.000949 µM, first compound 0.0316 µM
[2] = second compound 0.000949 µM, first compound 0.1 µM
[3] = second compound 0.000949 µM, first compound 0.316 µM
[4] = second compound 0.000949 µM, first compound 1 µM
[5] = second compound 0.000949 µM, first compound 3.16 µM
[6] = second compound 0.000949 µM, first compound 10 µM
[7] = second compound 0.003 µM, first compound 0.0316 µM
[8] = second compound 0.003 µM, first compound 0.1 µM
[9] = second compound 0.003 µM, first compound 0.316 µM
[10] = second compound 0.003 µM, first compound 1 µM
[11] = second compound 0.003 µM, first compound 3.16 µM
[12] = second compound 0.003 µM, first compound 10 µM
[13] = second compound 0.00949 µM, first compound 0.0316 µM
[14] = second compound 0.00949 µM, first compound 0.1 µM
[15] = second compound 0.00949 µM, first compound 0.316 µM
[16] = second compound 0.00949 µM, first compound 1 µM
[17] = second compound 0.00949 µM, first compound 3.16 µM
[18] = second compound 0.00949 µM, first compound 10 µM
[19] = second compound 0.03 µM, first compound 0.0316 µM
[20] = second compound 0.03 µM, first compound 0.1 µM
[21] = second compound 0.03 µM, first compound 0.316 µM
[22] = second compound 0.03 µM, first compound 1 µM
[23] = second compound 0.03 µM, first compound 3.16 µM
[24] = second compound 0.03 µM, first compound 10 µM
[25] = second compound 0.0949 µM, first compound 0.0316 µM
[26] = second compound 0.0949 µM, first compound 0.1 µM
[27] = second compound 0.0949 µM, first compound 0.316 µM
[28] = second compound 0.0949 µM, first compound 1 µM
[29] = second compound 0.0949 µM, first compound 3.16 µM
[30] = second compound 0.0949 µM, first compound 10 µM
[31] = second compound 0.3 µM, first compound 0.0316 µM
[32] = second compound 0.3 µM, first compound 0.1 µM
[33] = second compound 0.3 µM, first compound 0.316 µM
[34] = second compound 0.3 µM, first compound 1 µM
[35] = second compound 0.3 µM, first compound 3.16 µM
[36] = second compound 0.3 µM, first compound 10 µM
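Also: spheroids exposed to compounds for seven days before readout.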

IC50 (second compound 0.000949 µM): 3790 nM
IC50 (second compound 0.003 µM): 2770 nM
IC50 (second compound 0.00949 µM): 2770 nM
IC50 (second compound 0.03 µM): 2540 nM
IC50 (second compound 0.0949 µM): 2080 nM
IC50 (second compound 0.3 µM): 2140 nM
SMILES: CC(C)NCC(C(=O)N1CCN(c2ncnc3c2C(C)CC3O)CC1)c1ccc(Cl)cc1 (stereo not drawn) + CCn1c(-c2cccnc2C(C)OC)c2c3cc(ccc31)N1CCOC(CC(NC(=O)C(C(C)C)N(C)C(=O)C3(F)CCN(C(=O)C#CC(C)(C)N(C)C)CC3)C(=O)N3CCCC(N3)C(=O)OCC(C)(C)C2)C1
viability, T/C [1]: 95.4%
viability, T/C [2]: 93.3%
viability, T/C [3]: 88.2%
viability, T/C [4]: 66.9%
viability, T/C [5]: 56%
viability, T/C [6]: 32.1%
viability, T/C [7]: 104%
viability, T/C [8]: 106%
viability, T/C [9]: 85.1%
viability, T/C [10]: 72.2%
viability, T/C [11]: 46.9%
viability, T/C [12]: 29.4%
viability, T/C [13]: 102%
viability, T/C [14]: 95.1%
viability, T/C [15]: 80.8%
viability, T/C [16]: 65.3%
viability, T/C [17]: 48.4%
viability, T/C [18]: 31%
viability, T/C [19]: 100%
viability, T/C [20]: 85.1%
viability, T/C [21]: 91.4%
viability, T/C [22]: 66.8%
viability, T/C [23]: 46.2%
viability, T/C [24]: 29.3%
viability, T/C [25]: 91.2%
viability, T/C [26]: 86.9%
viability, T/C [27]: 79.2%
viability, T/C [28]: 59.6%
viability, T/C [29]: 44.8%
viability, T/C [30]: 29.3%
viability, T/C [31]: 69.4%
viability, T/C [32]: 78.7%
viability, T/C [33]: 67.2%
viability, T/C [34]: 59.8%
viability, T/C [35]: 45.3%
viability, T/C [36]: 27.5%

IC50 (second compound 0.000949 µM): > 100 nM
IC50 (second compound 0.003 µM): > 100 nM
IC50 (second compound 0.00949 µM): > 100 nM
IC50 (second compound 0.03 µM): > 100 nM
IC50 (second compound 0.0949 µM): > 100 nM
IC50 (second compound 0.3 µM): 7.68 nM
SMILES: CC(C)n1nc(-c2ccc3oc(N)nc3c2)c2c(N)ncnc21 + CCn1c(-c2cccnc2C(C)OC)c2c3cc(ccc31)N1CCOC(CC(NC(=O)C(C(C)C)N(C)C(=O)C3(F)CCN(C(=O)C#CC(C)(C)N(C)C)CC3)C(=O)N3CCCC(N3)C(=O)OCC(C)(C)C2)C1
viability, T/C (second compound 0.000949 µM, first compound 0.000316 µM): 96.9%
viability, T/C (second compound 0.000949 µM, first compound 0.001 µM): 92%
viability, T/C (second compound 0.000949 µM, first compound 0.00316 µM): 80.3%
viability, T/C (second compound 0.000949 µM, first compound 0.01 µM): 62.1%
viability, T/C [1]: 31.9%
viability, T/C [2]: 99%
viability, T/C (second compound 0.003 µM, first compound 0.000316 µM): 93.8%
viability, T/C (second compound 0.003 µM, first compound 0.001 µM): 84.8%
viability, T/C (second compound 0.003 µM, first compound 0.00316 µM): 86.8%
viability, T/C (second compound 0.003 µM, first compound 0.01 µM): 59.4%
viability, T/C [7]: 37.1%
viability, T/C [8]: 98.4%
viability, T/C (second compound 0.00949 µM, first compound 0.000316 µM): 96.2%
viability, T/C (second compound 0.00949 µM, first compound 0.001 µM): 91.7%
viability, T/C (second compound 0.00949 µM, first compound 0.00316 µM): 66.6%
viability, T/C (second compound 0.00949 µM, first compound 0.01 µM): 55.8%
viability, T/C [13]: 34.1%
viability, T/C [14]: 89.8%
viability, T/C (second compound 0.03 µM, first compound 0.000316 µM): 86.6%
viability, T/C (second compound 0.03 µM, first compound 0.001 µM): 78.1%
viability, T/C (second compound 0.03 µM, first compound 0.00316 µM): 72.3%
viability, T/C (second compound 0.03 µM, first compound 0.01 µM): 53.8%
viability, T/C [19]: 33.7%
viability, T/C [20]: 101%
viability, T/C (second compound 0.0949 µM, first compound 0.000316 µM): 77%
viability, T/C (second compound 0.0949 µM, first compound 0.001 µM): 82.2%
viability, T/C (second compound 0.0949 µM, first compound 0.00316 µM): 71.4%
viability, T/C (second compound 0.0949 µM, first compound 0.01 µM): 55%
viability, T/C [25]: 37.9%
viability, T/C [26]: 69.3%
viability, T/C (second compound 0.3 µM, first compound 0.000316 µM): 68.8%
viability, T/C (second compound 0.3 µM, first compound 0.001 µM): 74.7%
viability, T/C (second compound 0.3 µM, first compound 0.00316 µM): 66.8%
viability, T/C (second compound 0.3 µM, first compound 0.01 µM): 45.7%
viability, T/C [31]: 27.2%
viability, T/C [32]: 56.1%

IC50 (second compound 0.000949 µM): 650 nM
IC50 (second compound 0.003 µM): 716 nM
IC50 (second compound 0.00949 µM): 453 nM
IC50 (second compound 0.03 µM): 510 nM
IC50 (second compound 0.0949 µM): 280 nM
IC50 (second compound 0.3 µM): 132 nM
SMILES: CC(Nc1ccc2c(c1)OCCn1cc(N3C(=O)OCC3C(F)F)nc1-2)C(N)=O (stereo not drawn) + CCn1c(-c2cccnc2C(C)OC)c2c3cc(ccc31)N1CCOC(CC(NC(=O)C(C(C)C)N(C)C(=O)C3(F)CCN(C(=O)C#CC(C)(C)N(C)C)CC3)C(=O)N3CCCC(N3)C(=O)OCC(C)(C)C2)C1
viability, T/C [1]: 86.7%
viability, T/C [2]: 68.8%
viability, T/C [3]: 56.5%
viability, T/C [4]: 48%
viability, T/C [5]: 34%
viability, T/C [6]: 26.5%
viability, T/C [7]: 94.1%
viability, T/C [8]: 74.7%
viability, T/C [9]: 57.7%
viability, T/C [10]: 47.2%
viability, T/C [11]: 35.6%
viability, T/C [12]: 23.1%
viability, T/C [13]: 92.5%
viability, T/C [14]: 70%
viability, T/C [15]: 53.3%
viability, T/C [16]: 39.6%
viability, T/C [17]: 39.2%
viability, T/C [18]: 26.7%
viability, T/C [19]: 87.2%
viability, T/C [20]: 72.3%
viability, T/C [21]: 55.3%
viability, T/C [22]: 40.8%
viability, T/C [23]: 36.6%
viability, T/C [24]: 28.1%
viability, T/C [25]: 72.9%
viability, T/C [26]: 57.2%
viability, T/C [27]: 49.2%
viability, T/C [28]: 38.4%
viability, T/C [29]: 37.5%
viability, T/C [30]: 24.9%
viability, T/C [31]: 70.3%
viability, T/C [32]: 54.4%
viability, T/C [33]: 35.8%
viability, T/C [34]: 38%
viability, T/C [35]: 30.1%
viability, T/C [36]: 25%

IC50 (second compound 0.000949 µM): > 10000 nM
IC50 (second compound 0.003 µM): > 10000 nM
IC50 (second compound 0.00949 µM): > 10000 nM
IC50 (second compound 0.03 µM): > 10000 nM
IC50 (second compound 0.0949 µM): > 10000 nM
IC50 (second compound 0.3 µM): > 10000 nM
SMILES: C[C@@H](NC(=O)c1ncnc(N)c1Cl)c1ncc(C(=O)Nc2cc(C(F)(F)F)c(Cl)cn2)s1 + CCn1c(-c2cccnc2C(C)OC)c2c3cc(ccc31)N1CCOC(CC(NC(=O)C(C(C)C)N(C)C(=O)C3(F)CCN(C(=O)C#CC(C)(C)N(C)C)CC3)C(=O)N3CCCC(N3)C(=O)OCC(C)(C)C2)C1
viability, T/C [1]: 106%
viability, T/C [2]: 109%
viability, T/C [3]: 113%
viability, T/C [4]: 133%
viability, T/C [5]: 128%
viability, T/C [6]: 111%
viability, T/C [7]: 102%
viability, T/C [8]: 104%
viability, T/C [9]: 120%
viability, T/C [10]: 134%
viability, T/C [11]: 127%
viability, T/C [12]: 108%
viability, T/C [13]: 98%
viability, T/C [14]: 114%
viability, T/C [15]: 106%
viability, T/C [16]: 129%
viability, T/C [17]: 150%
viability, T/C [18]: 108%
viability, T/C [19]: 110%
viability, T/C [20]: 106%
viability, T/C [21]: 129%
viability, T/C [22]: 115%
viability, T/C [23]: 142%
viability, T/C [24]: 103%
viability, T/C [25]: 96.8%
viability, T/C [26]: 98.5%
viability, T/C [27]: 113%
viability, T/C [28]: 118%
viability, T/C [29]: 130%
viability, T/C [30]: 99.6%
viability, T/C [31]: 88.1%
viability, T/C [32]: 89.3%
viability, T/C [33]: 85.5%
viability, T/C [34]: 95.9%
viability, T/C [35]: 108%
viability, T/C [36]: 82.4%
